Assay results as given in ChEMBL document CHEMBL1143211, “Inhibitors of proteases and amide hydrolases that employ an alpha-ketoheterocycle as a key enabling functionality” (Bioorg Med Chem, 2008).

biological target: Prothrombin (Homo sapiens, UniProt P00734); assay: Inhibition of human alpha-thrombin

Compound | IC50 [nM] | Ki [nM]
N=C(N)NCCC[C@H](NC(=O)[C@@H]1CC[C@H]2CN(S(=O)(=O)Cc3ccccc3)CC(=O)N21)C(=O)c1nccs1 | – | 0.2
N=C(N)NCCC[C@H](NC(=O)[C@@H]1CCCN1C(=O)CC(c1ccccc1)c1ccccc1)C(=O)c1nc2ccccc2s1 | – | 1.1
C[C@]12C[C@@H](Cc3ccccc3)CC(=O)N1[C@H](C(=O)N[C@@H](CCCNC(=N)N)C(=O)c1nccs1)CS2 | – | 16
NC(N)=NCCC[C@H](NC(=O)CN1CCN[C@H](CCCN=C(N)N)C1=O)C(=O)c1nccs1 | 200000 | –
CN[C@H](Cc1ccccc1)C(=O)N1CCC[C@H]1C(=O)N[C@](C)(CCCNC(=N)N)C(=O)c1nc2ccccc2s1.O=C(O)C(F)(F)F | 3700 | –
N=C(N)NCCC[C@H](NC(=O)[C@@H]1CC[C@H]2CN(C(=O)CCc3ccccc3)CC(=O)N21)C(=O)c1nc2ccccc2s1 | < 1 | –
C[C@]12C[C@@H](Cc3ccccc3)CC(=O)N1[C@H](C(=O)N[C@@H](CCCN=C(N)N)C(=O)c1nc3ccccc3s1)CS2 | – | 18
NC(N)=NCCC[C@H](NC(=O)[C@@H]1CC[C@H]2CN(C(=O)[C@H](N)Cc3cc4ccccc4[nH]3)CC(=O)N21)C(=O)c1nccs1 | – | 1
Cc1cccc(C(C)(C)CN(CC(=O)NCC(=O)NC(CCCN=C(N)N)B(O)O)C(=O)CCc2ccccc2)c1 (single isomer, unassigned) | – | 400
N=C(N)NCCC[C@H](NC(=O)[C@@H]1CC[C@H]2CN(C(=O)CCOc3ccccc3)CC(=O)N21)C(=O)c1nccs1 | – | 5
N=C(N)N1CCC[C@@H](C[C@H](NC(=O)CN2C(=O)CN(c3ccccc3)C(=O)[C@H]2Cc2ccccc2)C(=O)c2nccs2)C1 | 1200 | –
C[C@]12C[C@@H](Cc3ccc4nc(C(F)(F)F)ccc4c3)CC(=O)N1[C@H](C(=O)N[C@@H](CCCNC(=N)N)C(=O)c1nc3ccccc3s1)CS2 | – | 18
N=C(N)NCCC[C@H](NC(=O)[C@@H]1CCCN1C(=O)[C@H](CO)NS(=O)(=O)c1cccc2ccccc12)C(=O)c1nc2ccccc2s1 | – | 0.8
C[C@]12C[C@@H](Cc3ccc4nc(C(F)(F)F)ccc4c3)CC(=O)N1[C@H](C(=O)N[C@@H](CCCN=C(N)N)C(=O)c1nccs1)CS2 | – | 10

The next lines start with results.

IC50 [nM] | Compound | Ki [nM]
1000 | NC(N)=NCCC[C@H](NC(=O)CN1CCN(S(=O)(=O)c2ccc(Cl)cc2)CC1=O)C(=O)c1nccs1 | –
510 | N=C(N)NCCC[C@H](NC(=O)CN1CCN(S(=O)(=O)Cc2ccccc2)[C@H](Cc2ccccc2)C1=O)C(=O)c1nccs1 | –
38 | NC(N)=NCCC[C@H](NC(=O)CN1CCCC[C@@H](NS(=O)(=O)Cc2ccccc2)C1=O)C(=O)c1nccs1 | –
11000 | NC(N)=NCCC[C@H](NC(=O)CN1CCN(C(=O)Cc2ccccc2)CC1=O)C(=O)c1nccs1 | –
420 | NC(N)=NCCC[C@H](NC(=O)CN1CCN(S(=O)(=O)c2ccccc2)CC1=O)C(=O)c1nccs1 | –
150000 | N=C(N)NCCC[C@H](NC(=O)CN1CCN[C@@H](CCCNC(=N)N)C1=O)C(=O)c1nccs1 | –
7000 | N=C(N)NCCC[C@H](NC(=O)CN1CCN(C(=O)c2ccccc2)CC1=O)C(=O)c1nccs1 | –
14000 | N=C(N)NCCC[C@H](NC(=O)CN1CCN(Cc2ccccc2)CC1=O)C(=O)c1nccs1 | –
2600 | CC(C)C[C@H](NC(=O)NCc1ccc(Cl)c(Cl)c1)C(=O)N[C@H](C(=O)N[C@@H](CCCN=C(N)N)C(=O)c1nccs1)C(C)C | –
390 | NC(N)=NCCC[C@H](NC(=O)CN1CCN(S(=O)(=O)Cc2ccccc2)CC1=O)C(=O)c1nccs1 | –
2000 | N=C(N)NCCC[C@H](NC(=O)CN1CCN(S(=O)(=O)Cc2ccccc2)[C@@H](Cc2ccccc2)C1=O)C(=O)c1nccs1 | –
110 | N=C(N)N1CCC[C@@H](C[C@H](NC(=O)CN2C(=O)CN(CCCc3ccc(Cl)cc3)C(=O)[C@H]2Cc2ccccc2)C(=O)c2nccs2)C1 | –
40 | N=C(N)NCCC[C@H](NC(=O)CNC(=O)[C@@H](CC1CCCCC1)NS(=O)(=O)Cc1ccccc1)C(=O)c1nccs1 | –

biological target: Trypsin (Homo sapiens, UniProt P07477+P07478+P35030); assay: Inhibition of human trypsin; type: protein assay

Compound | IC50 [nM]
CN[C@H](Cc1ccccc1)C(=O)N1CCC[C@H]1C(=O)N[C@](C)(CCCNC(=N)N)C(=O)c1nc2ccccc2s1.O=C(O)C(F)(F)F | 6000
N=C(N)N1CCC([C@H](NC(=O)[C@@H]2CC[C@H]3CN(C(=O)CCc4ccccc4)CC(=O)N32)C(=O)c2nccs2)CC1 | 11900

Now from value to compound:

IC50 [nM] | Compound
9100 | N=C(N)N1CCC[C@@H](C[C@H](NC(=O)CN2C(=O)CN(CCCc3ccccc3)C(=O)[C@H]2Cc2ccccc2)C(=O)c2nccs2)C1
340 | C[C@@H]1C(=O)N(CCCc2ccccc2)CC(=O)N1CC(=O)N[C@@H](C[C@@H]1CCCN(C(=N)N)C1)C(=O)c1nccs1
470 | N=C(N)NCCC[C@H](NC(=O)Cn1c(Cc2ccccc2)c(Cl)nc(NCCc2ccccc2)c1=O)C(=O)c1nccs1
24000 | C[C@H]1C(=O)N(CCCc2ccccc2)CC(=O)N1CC(=O)N[C@@H](C[C@@H]1CCCN(C(=N)N)C1)C(=O)c1nccs1

biological target: Coagulation factor X (Homo sapiens, UniProt P00742); assay: Inhibition of human factor 10a
Sequence (P00742 41-179 limits assumed): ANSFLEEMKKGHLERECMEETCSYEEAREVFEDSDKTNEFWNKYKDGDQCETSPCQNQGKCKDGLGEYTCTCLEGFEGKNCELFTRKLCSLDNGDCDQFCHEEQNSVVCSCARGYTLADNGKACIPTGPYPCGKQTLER
Sequence (P00742 235-488 limits assumed): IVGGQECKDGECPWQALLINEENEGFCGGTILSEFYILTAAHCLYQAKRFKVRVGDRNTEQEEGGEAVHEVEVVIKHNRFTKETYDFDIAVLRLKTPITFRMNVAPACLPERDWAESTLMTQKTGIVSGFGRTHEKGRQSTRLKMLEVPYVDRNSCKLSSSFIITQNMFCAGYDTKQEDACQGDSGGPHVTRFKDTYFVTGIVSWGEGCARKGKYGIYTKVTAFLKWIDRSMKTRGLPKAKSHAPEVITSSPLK

IC50 [nM] | Compound
6 | CN(CC(=O)N[C@@H](CCCNC(=N)N)C(=O)c1nccs1)C(=O)CNS(=O)(=O)c1ccccc1
0.9 | N=C(N)NCCC[C@H](NC(=O)CN1CCN(S(=O)(=O)Cc2ccccc2)[C@H](Cc2ccccc2)C1=O)C(=O)c1nccs1
1 | N=C(N)NCCC[C@@H](NS(=O)(=O)Cc1ccccc1)C(=O)NCC(=O)N[C@@H](CCCCN)C(=O)c1nccs1
21 | NC(N)=NCCC[C@H](NC(=O)CN1CCN[C@H](CCCN=C(N)N)C1=O)C(=O)c1nccs1
17 | NC(N)=NCCC[C@H](NC(=O)CN1CCN(C(=O)Cc2ccccc2)CC1=O)C(=O)c1nccs1
2 | N=C(N)NCCC[C@H](NC(=O)CNC(=O)[C@@H](Cc1ccccc1)NS(=O)(=O)Cc1ccccc1)C(=O)c1nccs1
8 | NC(N)=NCCC[C@H](NC(=O)CN1CCN(S(=O)(=O)c2ccccc2)CC1=O)C(=O)c1nccs1
8 | N=C(N)NCCC[C@@H](N)C(=O)NCC(=O)N[C@@H](CCCNC(=N)N)C(=O)c1nccs1
11 | N=C(N)NCCC[C@H](NC(=O)CN1CCN[C@@H](CCCNC(=N)N)C1=O)C(=O)c1nccs1
320 | N=C(N)NCCC[C@H](NC(=O)CN1CCN(C(=O)c2ccccc2)CC1=O)C(=O)c1nccs1
28 | N=C(N)NCCC[C@@H](NS(=O)(=O)Cc1ccccc1)C(=O)NCC(=O)N[C@@H](CC1CCNCC1)C(=O)c1nccs1
770 | N=C(N)NCCC[C@H](NC(=O)CN1CCN(Cc2ccccc2)CC1=O)C(=O)c1nccs1
4 | NC(N)=NCCC[C@H](NC(=O)CN1CCN(S(=O)(=O)Cc2ccccc2)CC1=O)C(=O)c1nccs1
59 | N=C(N)NCCC[C@H](NC(=O)CN1CCN(S(=O)(=O)Cc2ccccc2)[C@@H](Cc2ccccc2)C1=O)C(=O)c1nccs1
0.6 | N=C(N)NCCC[C@H](NC(=O)CNC(=O)[C@@H](CC1CCCCC1)NS(=O)(=O)Cc1ccccc1)C(=O)c1nccs1
2 | CS(=O)(=O)N[C@H](CCCNC(=N)N)C(=O)NCC(=O)N[C@@H](CCCNC(=N)N)C(=O)c1nccs1
44 | N=C(N)NCCC[C@@H](NS(=O)(=O)Cc1ccccc1)C(=O)NCC(=O)N[C@@H](Cc1ccncc1)C(=O)c1nccs1
2 | N=C(N)NCCC[C@H](NC(=O)CNC(=O)[C@@H](Cc1c[nH]c2ccccc12)NS(=O)(=O)Cc1ccccc1)C(=O)c1nccs1

biological target: T1, Fatty-acid amide hydrolase 1 (Rattus norvegicus, UniProt P97612)
T1 sequence (P97612 whole entry): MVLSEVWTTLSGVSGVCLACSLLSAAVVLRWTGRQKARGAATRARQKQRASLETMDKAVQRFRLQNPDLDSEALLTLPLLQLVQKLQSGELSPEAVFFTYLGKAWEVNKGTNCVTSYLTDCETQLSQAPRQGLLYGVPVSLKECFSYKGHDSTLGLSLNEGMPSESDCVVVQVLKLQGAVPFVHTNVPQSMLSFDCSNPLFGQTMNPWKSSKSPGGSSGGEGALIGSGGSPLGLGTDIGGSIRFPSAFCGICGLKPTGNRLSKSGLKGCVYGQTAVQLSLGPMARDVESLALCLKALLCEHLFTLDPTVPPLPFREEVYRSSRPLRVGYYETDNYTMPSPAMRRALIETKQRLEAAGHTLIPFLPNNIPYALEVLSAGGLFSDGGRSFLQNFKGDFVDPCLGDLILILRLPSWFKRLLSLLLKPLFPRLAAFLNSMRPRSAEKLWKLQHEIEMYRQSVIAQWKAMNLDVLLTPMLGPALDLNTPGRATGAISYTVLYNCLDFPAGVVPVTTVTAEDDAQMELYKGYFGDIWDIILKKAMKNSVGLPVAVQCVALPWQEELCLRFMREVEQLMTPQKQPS

Ki [nM] | Compound
3.7 | CCCCCCCC/C=C\CCCCCCCC(=O)c1nc2ccncc2o1
90 | CCCCCCCC/C=C\CCCCCCCC(=O)c1nnco1
14 | CCCCCCCCCC/C=C\CCCCCCC(=O)c1ncc(-c2cccnn2)o1
0.69 | CCCCCCCC(=O)c1nc2ncccc2o1
3700 | CCCCCCCC/C=C\CCCCCCCC(=O)c1nnnn1C
50 | CCCCC(=O)c1nc2ncccc2o1
65 | CCCCCCCC/C=C\CCCCCCCC(=O)c1nnn(C)n1
0.8 | COc1ccnc(-c2cnc(C(=O)CCCCCCc3ccccc3)o2)c1
1 | CCCCC/C=C\C/C=C\C/C=C\C/C=C\CCCC(=O)c1nc2ncccc2o1
130 | CCCCCCCC/C=C\CCCCCCCC(=O)c1cccnn1
17 | CCCCCCCC/C=C\CCCCCCCC(=O)c1ncco1
130 | COC(=O)c1cccnc1-c1cnc(C(=O)CCCCCCc2ccccc2)o1
0.75 | O=C(CCc1ccc(-c2ccccc2)cc1)c1nc(-c2ccccn2)co1
47 | CCCCC/C=C\C/C=C\C/C=C\C/C=C\CCCC(=O)[n+]1ccccn1
> 100000 | CCCCCCCC/C=C\CCCCCCCC(=O)c1nccs1
> 100000 | CCCCCCCC/C=C\CCCCCCCC(=O)c1nc2ccccc2s1
